# Tests used:
# Assay type in all cases: cell-based
# [1] = test system: SH-SY5Y (human neuroblastoma) cells; assay: Cell viability, Cell Titer Glo 2.0 assay; details: read-out: Viability SHSY5Y.3 GI50
# Method in brief: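 SH-SY5Y cells were exposed to serially diluted compounds in IMDM with 10% FBS and 0.1% DMSO for 72 hours at 37° C., 5% CO2. Viability was measured by CellTiter-Glo 2.0 luminescence, with medium-only wells as blank.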
# MYB mRNA [2] = assay: Gene panel canonical junction qPCR assay, decrease in CJ mRNA, Table 3; details: decrease in canonical junction (CJ) mRNA, gene panel qPCR, Table 3
# Method in brief: (§1)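 Canonical exon-junction (CJ) transcript measured by 5′ nuclease RT-qPCR, normalized to GAPDH, GUSB or PPIA and to DMSO control (2^(−ΔΔCt)). A673 or K562 cells treated 24 h at 37° C with an 11-point 3-fold dilution series, top 10 uM, DMSO ≤0.25%. IC50 from 4-parameter logistic fit of percentage CJ decrease.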
# SMN2 mRNA = assay: as above; details: decrease in canonical junction (CJ) mRNA, gene panel qPCR, Table 3
# Method in brief: as §1
# HTT mRNA [3] = assay: as above; details: decrease in canonical junction (CJ) mRNA, gene panel qPCR, Table 3
# Method in brief: as §1
# HTT mRNA [4] = assay: Splicing RT-qPCR assay (THP), Table 2A; details: Table 2A (THP); for AC50: AJ mRNA increase, read-out: HTT AJ (increase in alternative junction mRNA, AC50); for IC50: CJ mRNA decrease, read-out: HTT CJ (decrease in canonical junction mRNA, IC50)
# MYB mRNA [5] = assay: Splicing RT-qPCR assay (THP), Table 2A; details: Table 2A (THP); for AC50: AJ mRNA increase, read-out: MYB AJ (increase in alternative junction mRNA, AC50); for IC50: CJ mRNA decrease, read-out: MYB CJ (decrease in canonical junction mRNA, IC50)
smiles,measurement,setting,value
"Cc1cn2cc(NC(=O)c3c(F)cc(N4CCNCC4)c4occc34)cc(F)c2n1 [Compound 247, 5-fluoro-N-(8-fluoro-2-methylimidazo-[1,2-a]pyridin-6-yl)-7-piperazin-1-yl-benzofuran-4-carboxamide]",GI50,[1],1 to 10 µM
same,IC50,MYB mRNA [2],> 10 µM
same,IC50,SMN2 mRNA,1 to 10 µM
same,IC50,HTT mRNA [3],> 10 µM
same,AC50,HTT mRNA [4],> 10 µM
same,IC50,HTT mRNA [4],> 10 µM
same,AC50,MYB mRNA [5],> 10 µM
same,IC50,MYB mRNA [5],> 10 µM
"Cc1cn2cc(NC(=O)c3ccc(N4CCNC(C(F)(F)F)C4)c4cn(C)nc34)cc(F)c2n1 (stereo not shown) [Compound 248, N-(8-fluoro-2-methyl-imidazo[1,2-a]-pyridin-6-yl)-2-methyl-4-[3-(trifluoro-methyl)piperazin-1-yl]indazole-7-carboxamide]",GI50,[1],> 10 µM
same,IC50,MYB mRNA [2],1 to 10 µM
same,IC50,SMN2 mRNA,0.1 to 1 µM
same,IC50,HTT mRNA [3],> 10 µM
same,AC50,HTT mRNA [4],> 10 µM
same,IC50,HTT mRNA [4],> 10 µM
same,AC50,MYB mRNA [5],1 to 10 µM
same,IC50,MYB mRNA [5],> 10 µM
"Cc1cn2cc(NC(=O)c3ccc(N4CCNC(C(F)F)C4)c4cn(C)nc34)cc(F)c2n1 (stereo not shown) [Compound 249, 4-[3-(difluoromethyl)piperazin-1-yl]-N-(8-fluoro-2-methylimidazo[1,2-a]pyridin-6-yl)-2-methyl-indazole-7-carboxamide]",GI50,[1],1 to 10 µM
same,IC50,MYB mRNA [2],0.1 to 1 µM
same,IC50,SMN2 mRNA,< 0.1 µM
same,IC50,HTT mRNA [3],1 to 10 µM
same,AC50,HTT mRNA [4],> 10 µM
same,IC50,HTT mRNA [4],1 to 10 µM
same,AC50,MYB mRNA [5],0.1 to 1 µM
same,IC50,MYB mRNA [5],0.1 to 1 µM
"COc1cc(N2CCNCC2)c2cn(C)nc2c1C(=O)Nc1cc(F)c2nc(C)cn2c1 [Compound 250, N-(8-fluoro-2-methyl-imidazo[1,2-a]pyridin-6-yl)-6-methoxy-2-methyl-4-piperazin-1-yl-indazole-7-carboxamide]",GI50,[1],> 10 µM
same,IC50,MYB mRNA [2],> 10 µM
same,IC50,SMN2 mRNA,1 to 10 µM
same,IC50,HTT mRNA [3],> 10 µM
same,AC50,HTT mRNA [4],> 10 µM
same,IC50,HTT mRNA [4],> 10 µM
same,AC50,MYB mRNA [5],1 to 10 µM
same,IC50,MYB mRNA [5],1 to 10 µM
"Cc1cn2cc(NC(=O)c3ccc(N4CCNCC4=O)c4cn(C)nc34)cc(F)c2n1 [Compound 251, N-(8-fluoro-2-methylimidazo[1,2-a]-pyridin-6-yl)-2-methyl-4-(2-oxopiperazin-1-yl)-2H-indazole-7-carboxamide 2,2,2-trifluoroacetate]",GI50,[1],> 10 µM
same,IC50,MYB mRNA [2],> 10 µM
same,IC50,SMN2 mRNA,1 to 10 µM
same,IC50,HTT mRNA [3],> 10 µM
same,AC50,HTT mRNA [4],> 10 µM
same,IC50,HTT mRNA [4],> 10 µM
same,AC50,MYB mRNA [5],> 10 µM
same,IC50,MYB mRNA [5],> 10 µM
"Cc1cn2cc(NC(=O)c3ccc(N4C[C@@H](C)N[C@@H](C)C4)c4nn(C)nc34)cc(F)c2n1 [Compound 252, 7-((3S,5R)-3,5-dimethyl-piperazin-1-yl)-N-(8-fluoro-2-methyl-imidazo[1,2-a]pyridin-6-yl)-2-methyl-2H-benzo[d][1,2,3]triazole-4-carboxamide 2,2,2-trifluoroacetate]",GI50,[1],1 to 10 µM
same,IC50,MYB mRNA [2],0.1 to 1 µM
same,IC50,SMN2 mRNA,< 0.1 µM
same,IC50,HTT mRNA [3],0.1 to 1 µM
same,AC50,HTT mRNA [4],1 to 10 µM
same,IC50,HTT mRNA [4],0.1 to 1 µM
same,AC50,MYB mRNA [5],0.1 to 1 µM
same,IC50,MYB mRNA [5],0.1 to 1 µM
"Cc1cn2cc(NC(=O)c3ccc(N4CCNCC4=O)c4[nH]cnc34)cc(F)c2n1 [Compound 257, N-(8-fluoro-2-methyl-imidazo[1,2-a]-pyridin-6-yl)-7-(2-oxopiperazin-1-yl)-1H-benzimidazole-4-carboxamide]",GI50,[1],> 10 µM
same,IC50,MYB mRNA [2],> 10 µM
same,IC50,SMN2 mRNA,1 to 10 µM
same,IC50,HTT mRNA [3],> 10 µM
same,AC50,HTT mRNA [4],> 10 µM
same,IC50,HTT mRNA [4],> 10 µM
same,AC50,MYB mRNA [5],> 10 µM
same,IC50,MYB mRNA [5],> 10 µM
"Cc1cn2cc(NC(=O)c3ccc(N4C[C@@H](C)N[C@@H](C)C4)c4nnn(C)c34)cc(F)c2n1 [Compound 261, 7-[(3R,5S)-3,5-dimethylpiperazin-1-yl]-N-(8-fluoro-2-methyl-imidazo[1,2-a]pyridin-6-yl)-3-methyl-benzotriazole-4-carboxamide]",GI50,[1],> 10 µM
same,IC50,MYB mRNA [2],> 10 µM
same,IC50,SMN2 mRNA,> 10 µM
same,IC50,HTT mRNA [3],> 10 µM
same,AC50,HTT mRNA [4],> 10 µM
same,IC50,HTT mRNA [4],> 10 µM
same,AC50,MYB mRNA [5],> 10 µM
same,IC50,MYB mRNA [5],> 10 µM

# Source: patent US20260285853A1, “COMPOUNDS AND METHODS FOR MODULATING SPLICING” (REMIX THERAPEUTICS INC., priority 2023, published 2026)
